Here are results for 13 compounds from US12522616B2, “Thiazololactam compound as ERK inhibitor and use thereof” (D3 BIO (WUXI) CO., LTD., priority 2019, dated 2026).

Data set [1] deals with ERK2 kinase (Homo sapiens (Human), UniProt P28482). In words: Assay of in vitro kinase activity (33P-ATP filter-binding, MBP substrate). The class given is biochemical. Particulars: remaining kinase activity vs DMSO control. The procedure: Assay Example 1. Assay of In Vitro Kinase Activity
The ability of compounds to inhibit ERK2 kinase activity was measured.
20 mM Hepes (pH 7.5), 10 mM MgCl2, 1 mM ethylenebis(oxyethylenenitrilo)tetraacetic acid (EGTA), 0.02% Brij35, 0.02 mg/mL bovine serum albumin (BSA), 0.1 mM Na3VO4, 2 mM dithiothreitol (DTT), 1% DMSO.
The assay compound was dissolved in 100% DMSO to prepare a stock solution of specific concentration. The compound was serially diluted in DMSO solution using Integra Viaflo Assist smart pipette.
• 1) The substrate MBP was prepared in freshly prepared reaction buffer; • 2) ERK2 kinase was added to the above-mentioned MBP solution and mixed gently; • 3) The compound dissolved in 100% DMSO was added to the kinase reaction system using ultrasound technology (Echo550; nanoliter range), and the mixture was incubated at room temperature for 20 minutes; • 4)^33P-ATP (specific concentration of […]) was added to the reaction system, and the reaction was started at this time; • 5) The mixture was incubated at room temperature for 2 hours; • 6) The amount of radioactivity was detected by filter-binding method; • 7) ERK2 kinase activity was calculated as the ratio of the remaining kinase activity in the assay sample to the kinase activity of the control group (treated by DMSO). Curve was fitted using Prism (GraphPad software) and IC50 values were calculated. 5.

In data set [2] the test system is HT29 tumor cells. In words: Assay of in vitro cell proliferation inhibition (CellTiterGlo). It counts as cell-based. Particulars: Homo sapiens, HT-29. Here is the method:
Assay Example 2. Assay of In Vitro Cell Proliferation Inhibition
The ability of compounds to inhibit the proliferation of HT29 tumor cells was measured.
The assay compound was dissolved in 100% DMSO to prepare 10 mM stock solution.
• 1) UV light of a biological safety cabin was turned on, and 30 minutes were counted down; • 2) In a 37° C. water bath, RPMI1640 medium and trypsin were preheated; • 3) After completion of the UV irradiation, the biological safety cabin was opened. • The preheated medium, trypsin and phosphate buffered saline (PBS), etc. were wiped with alcohol and placed in the biological safety cabin; • 4) HT29 cells were removed from the incubator, and the old medium was removed in biological safety cabin. 10 ml of PBS was added. The mixture was shaken gently, and then PBS was removed; • 5) 1.5 ml of preheated 0.25% trypsin was added. The culture vessel was shaken horizontally so that the trypsin evenly covered the cells at the bottom, and placed in an incubator for 2 minutes; • 6) Cell digestion was stopped with complete medium, and the cell suspension was pipetted to homogeneity and counted; • 7) According to the result of cell counting, the density of cell suspension was adjusted to 1500 cells per well, and the cell suspension was seeded at 50 μl per well; • 8) The stock solution of compounds was serially diluted in DMSO solution, and compounds were added to cell plate using Tecan; • 9) The compound-added cell plate and CellTiterGlo were equilibrated at room temperature, and 25 microliters of CellTiterGlo was then added to each well. The cell plate was shaken for 1-2 minutes and then allowed to stand for 10 minutes. The signal value was then detected. The data were analyzed using XL-Fit, and the IC50 of each compound was calculated. 4.

Data set [3] in a line: In vivo DMPK assay in mouse. The settings on record: female BALB/c mice; for Oral DNAUC (AUCPO/Dose) / Cmax / bioavailability: 3 mg/kg orally; for Cmax / clearance / Vd / bioavailability / half-life: mouse, plasma; for Cmax / bioavailability: po; for Cmax: read-out: Cmax (maximum concentration); for clearance / Vd: iv; for clearance / Vd / bioavailability: 1 mg/kg intravenously; for clearance: read-out: Cl (clearance rate); for Vd: read-out: Vdss (distribution volume); for bioavailability: read-out: F % (oral bioavailability); for half-life: single administration, read-out: T1/2 (half-life) (converted). The source says: Assay Example 3. Assay of In Vivo DMPK
In vivo DMPK assay in mouse
Female BALB/c mice were used as assay animals to determine the blood concentration of compounds and evaluate the pharmacokinetic behavior after a single administration.
Eight healthy adult female BALB/c mice were selected, wherein 4 mice were in the intravenous injection group and 4 mice were in the oral group. The vehicle in the intravenous injection group was 5% DMSO+95% (20% HP-β-CD). The compound to be assayed was mixed with an appropriate amount of vehicle for intravenous injection, vortexed and sonicated to prepare a clear solution of 0.5 mg/mL. The clear solution was filtered by a microporous membrane, and then ready for use. The vehicle in the oral group was 5% DMSO+95% (20% HP-β-CD). The compound to be assayed was mixed with the vehicle, vortexed and sonicated to prepare a solution of 0.3 mg/mL. Mice were administered 1 mg/kg intravenously or 3 mg/kg orally, and then whole blood was collected for a certain period. Plasma was prepared. The drug concentration was analyzed by LC-MS/MS method, and the pharmacokinetic parameters were calculated by Phoenix WinNonlin software (Pharsight, USA).
Note: DMSO: dimethyl sulfoxide; HP-β-CD: hydroxypropyl-β-cyclodextrin.

Data set [4] has as its system human non-small cell lung cancer H358 cells. In words: In vivo efficacy in mouse H358 subcutaneous xenograft model. Particulars: BALB/c nude mouse, 30 mg/kg PO QD. Here is the method:
Animals were monitored daily for health and death. […] Animal deaths and side effects in each group were recorded based on the number of animals in each group. […] 5.

Sequence of ERK2 kinase (P28482 whole entry): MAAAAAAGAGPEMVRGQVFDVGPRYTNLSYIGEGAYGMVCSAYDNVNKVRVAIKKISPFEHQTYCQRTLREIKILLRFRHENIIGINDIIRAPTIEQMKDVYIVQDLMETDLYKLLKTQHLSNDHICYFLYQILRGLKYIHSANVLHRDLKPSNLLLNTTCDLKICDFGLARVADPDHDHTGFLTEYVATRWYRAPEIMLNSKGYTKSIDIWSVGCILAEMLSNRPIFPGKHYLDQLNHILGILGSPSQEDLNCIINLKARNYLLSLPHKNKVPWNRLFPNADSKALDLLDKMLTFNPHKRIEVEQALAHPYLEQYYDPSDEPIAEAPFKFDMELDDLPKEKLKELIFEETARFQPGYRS

Turning to `Cc1cnc(Nc2ccnn2C(F)F)nc1-c1nc2c(s1)C(C)(C)N(Cc1cccc(F)c1)C2=O` [WX008], the IC50 in data set [1] is 0.52 nM; in data set [2], 58 nM.
The corresponding values for `Cc1cnc(Nc2ccnn2C2CC2)nc1-c1nc2c(s1)C(C)(C)N(Cc1cccc(F)c1)C2=O` [WX012] are 0.48 nM and 37 nM.
`Cc1cnc(Nc2ccnn2C)nc1-c1nc2c(s1)C(C)(C)N(Cc1cccc(Cl)c1)C2=O` [WX005]: the IC50 in data set [1] amounted to 0.05 nM; in data set [2] it was 8 nM. Besides, the “Oral DNAUC (AUCPO/Dose)” value in data set [3] amounted to 468 nM · h/mpk. Further, the Cmax in data set [3] worked out at 1030 nM.
As for `CC1(C)c2sc(-c3ccnc(NC4CCOCC4)n3)nc2C(=O)N1Cc1cccc(F)c1` [WX004], the IC50 in data set [1] worked out at 0.25 nM; in data set [2], 35 nM.
Take `Cn1nccc1Nc1nccc(-c2nc3c(s2)C(C)(C)N(Cc2cccc(F)c2)C3=O)n1` [WX002]: the results for the half-maximal inhibitory concentration (IC50) in data set [1] and in data set [2] were 0.35 nM and 24 nM, respectively.
Consider `COc1cc(Nc2ncc(C)c(-c3nc4c(s3)C(C)(C)N(Cc3cccc(F)c3)C4=O)n2)n(C)n1` [WX013], for which the IC50 in data set [1] is 0.19 nM; in data set [2], 18 nM.
As for `Cn1nccc1Nc1nccc(-c2nc3c(s2)C(C)(C)N(Cc2cccc(Cl)c2)C3=O)n1` [WX001], the concentration for half-maximal inhibition (IC50) in data set [1] turned out to be 0.24 nM. In data set [3], the “Oral DNAUC (AUCPO/Dose)” value stood at 2153 nM · h/mpk, the clearance was 14.3 mL/min/kg, the Vd turned out to be 1.1 L/kg and the bioavailability came out at 86%. Further, in data set [3], the half-life is 0.9 h and the Cmax was 3360 nM. In addition, half-maximal inhibition in data set [2] (IC50) required 14 nM.
On to `Cc1cnc(Nc2ccnn2C)nc1-c1nc2c(s1)C(C)(C)N(Cc1cccc(F)c1)C2=O` [WX006], for which the IC50 in data set [1] turned out to be 0.3 nM. Besides, in data set [3], the “Oral DNAUC (AUCPO/Dose)” value is listed as 530 nM · h/mpk, the clearance was found to be 23 mL/min/kg, the Vd is 1.7 L/kg and the bioavailability turned out to be 34%. In data set [3], the half-life was 1 h and the Cmax was found to be 1040 nM. Further, in data set [4] (to the 28th day), the “body weight of assay animals” value was “did not decrease significantly” and the morbidity or death entry is listed as “no morbidity or death”. The “TGI (inhibition rate of tumor growth)” value in data set [4] (H358 xenograft, 28th day) was 94%. The compound also displayed an IC50 in data set [2] of 7 nM.
For the compound `COCCn1nccc1Nc1ncc(C)c(-c2nc3c(s2)C(C)(C)N(Cc2cccc(F)c2)C3=O)n1` [WX011], the IC50 in data set [1] came to 0.98 nM; in data set [2] it was 26 nM.
In the case of `[2H]C([2H])([2H])n1nccc1Nc1ncc(C)c(-c2nc3c(s2)C(C)(C)N(Cc2cccc(F)c2)C3=O)n1` [WX009], in data set [1], the IC50 was determined as 0.64 nM. Moreover, in data set [3], the “Oral DNAUC (AUCPO/Dose)” value was determined as 820 nM · h/mpk, the clearance was found to be 28 mL/min/kg, the Vd is 1.7 L/kg and the bioavailability is 67%. For the same compound, in data set [3], the half-life was 1.7 h and the Cmax came to 1170 nM. Moreover, the IC50 in data set [2] is 6 nM.
On to `Cn1nccc1Nc1nccc(-c2nc3c(s2)C(C)(C)N(Cc2ccc(F)c(F)c2)C3=O)n1` [WX003], for which the values for the IC50 in data set [1] and in data set [2] were 0.37 nM and 27 nM, respectively.
The corresponding values for `CC1(C)c2sc(-c3ccnc(NC4CCOCC4)n3)nc2C(=O)N1Cc1cccc(Cl)c1` [WX007] are 0.39 nM and 26 nM.
As to `Cc1cc(Nc2ncc(C)c(-c3nc4c(s3)C(C)(C)N(Cc3cccc(F)c3)C4=O)n2)n(C)n1` [WX010], the results for the IC50 in data set [1] and in data set [2] were 0.14 nM and 27 nM, respectively.
